Measured values from paper PMC3274540 (PLoS ONE, 2012).
pIC50: −log10 of the molar value.

How the values were obtained:
ERα = target: T1, ERα (Homo sapiens, UniProt P03372); assay: fluorescence polarization competition binding assay
T1 construct: gene ESR1; recombinant
T1 sequence (P03372 1-595): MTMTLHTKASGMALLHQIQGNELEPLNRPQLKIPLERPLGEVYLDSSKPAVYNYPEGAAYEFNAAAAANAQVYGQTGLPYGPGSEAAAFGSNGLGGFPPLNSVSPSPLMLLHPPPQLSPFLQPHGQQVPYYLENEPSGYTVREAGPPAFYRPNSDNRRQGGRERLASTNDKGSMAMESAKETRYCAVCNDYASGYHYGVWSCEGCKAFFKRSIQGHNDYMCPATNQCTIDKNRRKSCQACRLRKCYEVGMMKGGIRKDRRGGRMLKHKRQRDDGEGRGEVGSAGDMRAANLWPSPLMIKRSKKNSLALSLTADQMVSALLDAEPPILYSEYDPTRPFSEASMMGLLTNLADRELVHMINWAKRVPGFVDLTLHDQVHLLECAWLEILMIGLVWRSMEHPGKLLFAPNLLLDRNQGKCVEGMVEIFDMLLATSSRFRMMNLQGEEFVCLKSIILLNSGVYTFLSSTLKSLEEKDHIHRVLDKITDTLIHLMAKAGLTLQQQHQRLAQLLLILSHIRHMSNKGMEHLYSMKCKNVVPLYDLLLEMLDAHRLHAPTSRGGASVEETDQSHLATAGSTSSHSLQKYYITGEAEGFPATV

ERβ = target: T2, ERβ (Homo sapiens, UniProt Q92731); assay: as above
T2 construct: gene ESR2; recombinant
T2 sequence (Q92731 whole entry): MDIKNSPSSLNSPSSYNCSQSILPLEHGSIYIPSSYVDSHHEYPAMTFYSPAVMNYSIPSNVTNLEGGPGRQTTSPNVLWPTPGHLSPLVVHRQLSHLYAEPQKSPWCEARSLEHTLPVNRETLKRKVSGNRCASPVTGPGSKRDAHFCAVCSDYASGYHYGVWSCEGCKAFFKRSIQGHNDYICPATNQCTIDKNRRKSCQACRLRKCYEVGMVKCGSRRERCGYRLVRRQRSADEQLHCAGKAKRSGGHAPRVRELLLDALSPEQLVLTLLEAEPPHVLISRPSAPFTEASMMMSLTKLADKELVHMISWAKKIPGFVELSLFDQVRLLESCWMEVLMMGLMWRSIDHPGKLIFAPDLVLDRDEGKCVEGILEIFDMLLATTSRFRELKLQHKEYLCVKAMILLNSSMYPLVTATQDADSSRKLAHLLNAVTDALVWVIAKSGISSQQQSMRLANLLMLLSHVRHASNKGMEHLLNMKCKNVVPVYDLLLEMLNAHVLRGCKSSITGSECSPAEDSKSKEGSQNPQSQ

| pIC50 (ERα) | pIC50 (ERβ) | Structure (SMILES) |
| --- | --- | --- |
| 5.66 | 5.33 | COc1ccc([C@@H](C)C(=O)c2ccc(O)cc2O)cc1 [angolensin, 1-(2,4-dihydroxyphenyl)-2-(4-methoxyphenyl)propan-1-one] |
| 4.80 | 5.48 | O=c1cc(-c2ccc(O)cc2)oc2cc(O[C@@H]3O[C@H](CO)[C@@H](O)[C@H](O)[C@H]3O)cc(O)c12 [cosmosiin, 5-hydroxy-2-(4-hydroxyphenyl)-7-[(2S,3R,4S,5S,6R)-3,4,5-trihydroxy-6-(hydroxymethyl)oxan-2-yl]oxychromen-4-one] |
